The record followed here is publication PMC3193053 (Analytical chemistry, 2011).

A value given as a limit tells only on which side of the number the result lay.

The test system of this assay is VHH T9. Description: Cross-reactivity of the TCC competitive ELISA set up with VHH T9. Format: binding, Lama glama. The following applies: CR% = IC50 (TCC) ÷ IC50 (cross-reacting compound) × 100. A general note: An ELISA detects its analyte on a solid surface through an enzyme-linked reagent.
With `O=C(Nc1ccc(Cl)c(Cl)c1)Nc1ccc(Cl)cc1O` [2′-OH TCC], the “CR (%)” value is recorded as 16.9%.

On to `O=C(Nc1ccc(Cl)c(Cl)c1)Nc1ccc(Cl)c(Cl)c1` [3,3′,4,4′-Tetrachloro-carbanilide], for which the “CR (%)” value was determined as 2.46%.

Take `O=C(Nc1ccc(Cl)cc1)Nc1ccc(Cl)c(C(F)(F)F)c1` [3-Trifluoromethyl-4,4′-dichlorocarbanilide]: the “CR (%)” value was found to be 6.97%.

Turning to `O=C(Nc1ccc(Cl)cc1)Nc1ccc(Cl)cc1` [4,4′-Dichlorocarbanilide], the “CR (%)” value is 13.3%.

`O=C(Nc1ccccc1)Nc1ccccc1` [Carbanilide]: the “CR (%)” value is 1.78%.

For the compound `O=C(Nc1ccc(Cl)c(Cl)c1)Nc1ccc(Cl)cc1OS(=O)(=O)O` [Sulfate of 2′-OH TCC], the “CR (%)” value is <0.1%.

For `O=C(Nc1ccc(Cl)cc1)Nc1ccc(Cl)c(Cl)c1` [TCC, 3,4,4′-trichlorocarbanilide], the “CR (%)” value is listed as 100%.

Take `Oc1cc(Cl)ccc1Oc1ccc(Cl)cc1Cl` [Triclosan]: the “CR (%)” value was <0.1%.

In the case of `CC(=O)N1CCC(NC(=O)Nc2ccc(OC(F)(F)F)cc2)CC1` [sEHi, #1555], the “CR (%)” value is recorded as <0.1%.

On to `CS(=O)(=O)N1CCC(NC(=O)Nc2ccc(OC(F)(F)F)cc2)CC1` [sEHi, #1709], for which the “CR (%)” value is recorded as <0.1%.

Take Dinuron: the “CR (%)” value is listed as <0.1%.
